Test results as given in US9149038B2, “4-amino-6-(heterocyclic)picolinates and 6-amino-2-(heterocyclic)pyrimidine-4-carboxylates and their use as herbicides” (Dow AgroSciences LLC, priority 2013, dated 2015).
Like-named read-outs stand apart in the source and are kept apart here.

Key:
[1] = test system: Key Broadleaf Weed and Crop Species; experiment: Post-Emergent Test II: postemergent herbicidal activity, visual rating after 14 d (Table 7); assay type: in vivo; settings: post-emergence, 336 h; for pest or weed control at 35 g/ha: 35 g ai/ha; for pest or weed control at 70 g/ha: 70 g ai/ha; for pest or weed control at 140 g/ha: 140 g ai/ha
Procedure, shortened: (§1)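 Post-emergence foliar spray, 187 L/ha, first/second true leaf stage plants in potting mix (pH 6.0-6.8). Rates: top rate and 2-fold serial dilutions to 1/16×. Solvent-blank controls. Readout: visual % kill at 14 d.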

[2] = test system: Key Grass and Sedge Weeds as well as Grass Crops; experiment: Post-Emergent Test II: postemergent herbicidal activity, visual rating after 14 d (Table 8); assay type: in vivo; settings: post-emergence, 336 h; for pest or weed control at 35 g/ha: 35 g ai/ha; for pest or weed control at 70 g/ha: 70 g ai/ha; for pest or weed control at 140 g/ha: 140 g ai/ha
Procedure, shortened: as §1

[3] = ABUTH: velvetleaf (Abutilon theophrasti), read-out: Visual Growth Reduction (%) 14 Days After Application ABUTH
[4] = AMARE: redroot pigweed (Amaranthus retroflexus), read-out: Visual Growth Reduction (%) 14 Days After Application AMARE
[5] = BRSNN: oilseed rape, canola (Brassica napus), read-out: Visual Growth Reduction (%) 14 Days After Application BRSNN
[6] = CHEAL: lambsquarters (Chenopodium album), read-out: Visual Growth Reduction (%) 14 Days After Application CHEAL
[7] = EPHHL: wild poinsettia (Euphorbia heterophylla), read-out: Visual Growth Reduction (%) 14 Days After Application EPHHL
[8] = HELAN: sunflower (Helianthus annuus), read-out: Visual Growth Reduction (%) 14 Days After Application HELAN
[9] = barnyardgrass (Echinochloa crus-galli), read-out: Visual Growth Reduction (%) 14 Days After Application, ECHCG
[10] = giant foxtail (Setaria faberi), read-out: Visual Growth Reduction (%) 14 Days After Application, SETFA
[11] = maize, corn (Zea mays), read-out: Visual Growth Reduction (%) 14 Days After Application, ZEAMX
[12] = rice (Oryza sativa), read-out: Visual Growth Reduction (%) 14 Days After Application, ORYSA
[13] = wheat, spring (Triticum aestivum), read-out: Visual Growth Reduction (%) 14 Days After Application, TRZAS
[14] = yellow nutsedge (Cyperus esculentus), read-out: Visual Growth Reduction (%) 14 Days After Application, CYPES

Work on `COC(=O)c1nc(-c2ccc(F)c3c2OCO3)nc(N)c1OC` [Compound 97] yielded a pest or weed control at 35 g/ha [1, 3] of 0 to 29%, a pest or weed control at 70 g/ha [1, 3] of 0 to 29% and a pest or weed control at 140 g/ha [1, 3] of 0 to 29%. It also gave a pest or weed control at 35 g/ha [1, 4] of 0 to 29%, a pest or weed control at 70 g/ha [1, 4] of 0 to 29% and a pest or weed control at 140 g/ha [1, 4] of 0 to 29%. The pest or weed control at 35 g/ha [1, 5] was 0 to 29%, the pest or weed control at 70 g/ha [1, 5] was 0 to 29% and the pest or weed control at 140 g/ha [1, 5] was 0 to 29%. It also gave a pest or weed control at 35 g/ha [1, 6] of 60 to 74%, a pest or weed control at 70 g/ha [1, 6] of 85 to 94% and a pest or weed control at 140 g/ha [1, 6] of 60 to 74%. The pest or weed control at 35 g/ha [1, 7] was 0 to 29%, the pest or weed control at 70 g/ha [1, 7] was 0 to 29% and the pest or weed control at 140 g/ha [1, 7] was 0 to 29%. The pest or weed control at 35 g/ha [1, 8] was 60 to 74%, the pest or weed control at 70 g/ha [1, 8] was 75 to 84% and the pest or weed control at 140 g/ha [1, 8] was 85 to 94%. The pest or weed control at 35 g/ha [2, 9] was 0 to 29%, the pest or weed control at 70 g/ha [2, 9] was 0 to 29% and the pest or weed control at 140 g/ha [2, 9] was 0 to 29%. For the same molecule, the pest or weed control at 35 g/ha [2, 10] was 0 to 29%, the pest or weed control at 70 g/ha [2, 10] was 0 to 29% and the pest or weed control at 140 g/ha [2, 10] was 0 to 29%. The pest or weed control at 35 g/ha [2, 11] was 0 to 29%, the pest or weed control at 70 g/ha [2, 11] was 0 to 29% and the pest or weed control at 140 g/ha [2, 11] was 0 to 29%. It also gave a pest or weed control at 35 g/ha [2, 12] of 0 to 29%, a pest or weed control at 70 g/ha [2, 12] of 0 to 29% and a pest or weed control at 140 g/ha [2, 12] of 0 to 29%. For the same molecule, the pest or weed control at 35 g/ha [2, 13] was 0 to 29%, the pest or weed control at 70 g/ha [2, 13] was 0 to 29% and the pest or weed control at 140 g/ha [2, 13] was 0 to 29%. The pest or weed control at 35 g/ha [2, 14] was 0 to 29%, the pest or weed control at 70 g/ha [2, 14] was 0 to 29% and the pest or weed control at 140 g/ha [2, 14] was 0 to 29%.
